Data as given in patent publication US10889812B2, “Short non-coding protein regulatory RNAs (sprRNAs) and methods of use” (University of Maryland, Baltimore, priority 2014, dated 2021).
“Also recorded” adds a separate entry of the source. m = 2'-O-methyl; r = 2'-OH (RNA)

Experiments:
p-ERM = assay: IP with anti-p-ERM antibody followed by RT-PCR in transfected H1792 cells; assay type: binding, human; conditions: H1792 cells transfected with the oligonucleotide
Description: We next wanted to determine the site critical for piR-L-163's binding toP-ERM. We first analyzed the piR-L-163 sequence and identified a candidate motif “UUNNUUUNNUU” (SEQ ID NO:495) with potentially critical for the binding (FIG. 5a). We then generated 5 mutant forms of piR-L-163 named as M1-M5 (FIG. 5b and Table 3) to test their potential impact on the p-ERM binding. For this experiment, we used H1792 cells because these cells expressed extremely low level of endogenous piR-L-163 but considerable amount of p-ERM (FIG. 5c and FIG. 11a). H1792 cells were transfected with Scr (control), Ant-163, piR-L-163 (WT), or Mutant 1 (M1) to Mutant 5 (M5) RNA oligonucletides, respectively. An anti-p-ERM antibody was used for IP followed by RT-PCR using primers specific for Scr, Ant-163, piR-L-163, or M1-M5 (Table 6) to detect the corresponding oligonucleotides.
To amplify sncRNAs, we added an adaptor to the 3′ end, a process including adaptor ligation, RT and PCR (de Vanssay, A. et al. Paramutation in Drosophila linked to emergence of a piRNA-producing locus. Nature 490, 112-115 (2012); Li, Z. et al. Characterization of viral and human RNAs smaller than canonical MicroRNAs. J Virol. 83, 12751-12758 (2009)). For adaptor ligation, the adaptor /5′rapp/CTGTAGGCACCATCAAT/3′ddc/ (SEQ ID NO:499) with both 5′ and 3′ modification was used. Briefly, mixed 1 μl (10 pmol, ˜55 ng) of RNA 3′ adaptor and 4.4 μl (˜100 ng) of purified sncRNAs in a 1.5 ml EP tube; Incubated at 72° C. for 2 min, then placed on ice immediately and kept it on ice for at least 1 min; Added the following reagents (New England Biolabs) to the above tube: 0.8 μl 10×RNA ligase buffer, 1 μl RNase inhibitor, and 1 μl single strand RNA ligase; Mixed it well and incubated at 37° C. for 1 hr, then terminated the reaction at 65° C. for 15 min. For RT, SuperScript™ III First-Strand Synthesis System (Invitrogen) was used according to the manufacturer's instructions with gene specific primer (5′-[…]-3′) (SEQ ID NO:500). For PCR, a common reverse primer (5′-[…]-3′) (SEQ ID NO:501) and primers specific for individual sncRNAs (Table 6). Amplification conditions were denaturation at 95° C. for 30 s (5 min for the first cycle), annealing at 60° C. for 20 s and extension at 72° C. for 20 s (2 min for the last cycle) for 25 cycles.
For IP using anti-human Moesin or p-ERM antibodies, anti-Moesin (Clone Q480, Catalog No. 3150, Cell Signaling) or anti-p-ERM (Clone 41A3, Catalog No. 3149, Cell Signaling) antibodies were used and a rabbit IgG was used as a control. Briefly, Saturated protein G agarose beads (Sigma-Aldrich) with rabbit IgG, anti-Moesin or anti-p-ERM antibodies, respectively (1 μg antibody was used for 4 μl agarose beads) at 4° C. for 3 hrs, centrifuged at 2,200×g for 5 min, and discarded the upper aqueous phase; (2) Protein extracts prepared from cells using lysis buffer (20 mM Tris-cl, pH7.6, 150 mM NaCl, 20 mM KCl, 1.5 mM MgCl2, 0.5% NP-40, 0.5 mM PMSF) were pre-cleared using protein G agarose at 4° C. for 2 hrs, centrifuged at 2,200×g for 5 min, and transferred the upper aqueous phase to above tubes with agarose beads saturated with antibodies, respectively; Kept the tubes rotating overnight at 4° C., centrifuged at 2,200×g for 5 min, and washed the beads with lysis buffer twice; Extracted total RNAs from beads using Trizol Reagent (Life Technologies); Amplification of piR-L-163 or its mutants was performed according to the steps described in the “RT-PCR” section.

H1792 cells = assay: Trans-well invasion assay; assay type: cell-based, human; conditions: H1792, vs control RNA oligonucleotides
Description: We then tested the potential impact of piR-L-163 in cell migration and invasion, two of the properties involving ERM's biological functions (Fehon, R. G., Mclatchey, A. I. & Bretscher, A. Organizing the cell cortex: the role of ERM proteins. Nat Rev Mol Cell Biol. 11, 276-287 (2010); Hunter, K. W. Ezrin, a key component in tumor metastasis. Trends Mol. Med. 10, 201-204 (2004); Luo, Y. et al. Recognition of CD146 as an ERM-binding protein offers novel mechanisms for melanoma cell migration. Oncogene 31, 306-321 (2013); Clucas, J. & Valderrama, F. ERM proteins in cancer progression. J Cell Sci. 128, 1253 (2015)).
Briefly, 24 hrs after transfection, 6×10^4 cells were placed in the upper chamber of Matrigel Invasion Chambers (BD Bioscience) with growth factor-free Keratinocyte-SFM and the bottom chamber were exposed to Keratinocyte-SFM medium supplemented with L-Glutamine, prequalified human recombinant EGF 1-53 and BPE. Invading cells were evaluated after 12 hrs according to the manufacturer's instruction. The numbers of invading cells were adjusted 15% downwards for Ant-163 treated cells or 15% upwards for piR-L-163 treated cells to compensate the differences for the proliferation rates.

MDM2 = assay: Western blot of MDM2 cleavage and phosphorylation in SCC cells; assay type: cell-based, human; conditions: SCC cells transfected, vs Scr RNA
Description: Primary antibodies used were: anti-Moesin (1:1,000, Clone Q480, Catalog No. 3150, Cell Signaling), anti-p-ERM (Clone 41A3, Catalog No. 3149, Cell Signaling), anti-Moesin (Clone 38/Moesin, Catalog No. 610401, BD Transduction Laboratories), anti-p-Moesin (Thr558, Catalog No. 12895, Sanra Cruz), anti-β-actin (1:5,000, Catalog No. A228, Sigma-Aldrich), anti-EBP50 (1:100, Clone 6/EBP50, Catalog No. 61160, BD Transduction Laboratories), anti-F-actin (1:100, Clone NH3, Catalog No. MA1-80729, Thermor Fisher), anti-p-Wee 1 (Se53, 1:1000, Catalog No. sc-130223, Sanra Cruz), anti-Wee 1 (C-20, 1:1000, Catalog No. sc-325, Sanra Cruz), anti-p-Cdc2 (Tyr15, 1:1000, Catalog No. 9111, Cell Signaling), anti-p-Cdk (Thr14/Tyr15-R, 1:1000, Catalog No. sc-28435-R, Sanra Cruz), anti-Cdc2 p34 (H-297, 1:1000, Catalog No. sc-747, Sanra Cruz), anti-p-Cdc25C (Ser198, 1:1000, Catalog No. 9529, Cell Signaling), anti-CDK2 (78B2, 1:1000, Catalog No. 2546, Cell Signaling), anti-p-Histone H2AX (Ser139, 20E3, :1000, Catalog No. 9718, Cell Signaling), and anti-GFP (N-terminal, 1:4000, Catalog No. G1544, Sigma). Secondary antibodies used were: Goat anti-Mouse (1:2,500, Catalog No. 31160, Pierce), and Goat anti-Rabbit (1:2,500, Catalog No. 31460, Pierce). Cells were lysed in RIPA buffer (Sigma) on ice after washed in PBS twice, centrifuge at […] for 10 min at 4° C. Protein in supernatant was qualified using BCA™ protein assay kit (Thermo Scitific) and denatured in SDS loading buffer in boiling water, run 10% SDS-PAGE gel and transferred to nitrocellulose membrane (Thermo Scitific). […]
Next, we wanted to explore potential mechanism of piR-L-138-mediated apoptosis inhibition in CDDP treated lung SCC cells. We first analyzed cleaved PARP, a protein marker indicative of apoptosis, and found it was increased in the SCC cells pre-treated with Ant-138 compared with Scr pre-treated cells (FIG. 15d). As both of the SCC cell lines harbor p53 mutations, we analyzed mouse double minute 2 homolog (MDM2) which has been implicated in apoptosis including p53-independent pathway (Bohlman S, Manfredi J J. p53-independent effects of Mdm2. Subcell Biochem. 85,235-46 (2014); Bouska A, Eischen C M. Mdm2 affects genome stability independent of p53. Cancer Res. 69, 1697-701 (2009); Zhang, Z., Li, M., Wang, H., Agrawal, S., and Zhang, R. Antisense therapy targeting MDM2 oncogene in prostate cancer: Effects on proliferation, apoptosis, multiple gene expression, and chemotherapy. Proc. Natl. Acad. Sci. 100, 11636-11641 (2003); Zhang Z, Wang H, Li M, Agrawal S, Chen X, Zhang R. MDM2 Is a Negative Regulator of p21WAF1/CIP1, Independent of p53. […]

Substance	oligonucleotide detected by RT-PCR in anti-p-ERM IP products (binding to p-ERM) (p-ERM)	other results
M1: mutant form of piR-L-163, RNA oligonucleotide, SEQ ID NO:519 (AUAUCAUGAUGACACGACGACACUCUGACC; (30)..(30) 2′-O-methylation)	no RT-PCR band could be detected	invasion capability (H1792 cells): no impact
M2: mutant form of piR-L-163, RNA oligonucleotide, SEQ ID NO:520 (AUAUCAUGAUGUUACGACGAUUCUCUGACC; sugars from the 5' end r29 m1, backbone not given here; further chemistry not fully specified)	no RT-PCR band could be detected	
M3: mutant form of piR-L-163, RNA oligonucleotide, SEQ ID NO:521 (AUAUCAUGAUGUUACGCUGAUUCUCUGACC; sugars from the 5' end r29 m1, backbone not given here; further chemistry not fully specified)	RT-PCR bands with expected sizes were detected; also recorded: substantially weaker	
M4: mutant form of piR-L-163, RNA oligonucleotide, SEQ ID NO:522 (AUAUCAUGAUGUUACUCUGAUUCUCUGACC; sugars from the 5' end r29 m1, backbone not given here; further chemistry not fully specified)	RT-PCR bands with expected sizes were detected	
M5: mutant form of piR-L-163, RNA oligonucleotide, SEQ ID NO:523 (AUUUCAUGAUGUUACUUUGAUUCUCUGACC; sugars from the 5' end r29 m1, backbone not given here; further chemistry not fully specified)	RT-PCR bands with expected sizes were detected	
Scr: scrambled DNA or RNA oligonucleotides used as control (SEQ ID NO:506 DNA, SEQ ID NO:524 RNA) (DNA GATACCAGGGACATACGCTTGATCCTAGC; chain GAUACCAAGGACAUACGCUUAUGCAUGCUA; DNA: DNA, backbone and methylation of C not given here; chain: chemistry not given here) [reference compound]	no RT-PCR band could be detected	
piR-L-138: sprRNA, SEQ ID NO:268; piRNA-L down-regulated in NSCLC cells, up-regulated upon cisplatin (ACUUUAGCUCUAGAAUUACUCUGAGACCU; expressed or natural sequence; listed as Homo sapiens)		MDM2 cleavage (MDM2): enhanced MDM2 cleavage; Serine-166 phosphorylation in cleaved MDM2 (MDM2): reduced Serine-166 phosphorylation in cleaved MDM2
